The NIST ThermoML archive (doi:10.1016/j.jct.2016.09.007)

Assay: xn = mol fraction of the nth substance listed
Settings: 93.2 kPa, Liquid; for speed of sound: Frequency=3 MHz, Sing-around technique in a fixed-path interferometer; for mass density: Vibrating tube method

CCCC(=O)[O-].CCCC[NH3+] [n-butylammonium butanoate] + CCCCO
Settings | mass density, 293.15 K [kg/m3] | mass density, 298.15 K [kg/m3] | mass density, 303.15 K [kg/m3] | mass density, 308.15 K [kg/m3] | mass density, 313.15 K [kg/m3] | speed of sound, 293.15 K [m/s] | speed of sound, 298.15 K [m/s] | speed of sound, 303.15 K [m/s] | speed of sound, 308.15 K [m/s] | speed of sound, 313.15 K [m/s]
x1 = 0.0305 | 817.522 | 813.696 | 809.839 | 805.95 | 802.02 | 1266.2 | 1249.1 | 1232 | 1215.2 | 1198.4
x1 = 0.053 | 822.696 | 818.886 | 815.044 | 811.168 | 807.257 | 1271.7 | 1254.5 | 1237.4 | 1220.5 | 1203.8
x1 = 0.101 | 833.099 | 829.318 | 825.508 | 821.665 | 817.785 | 1283.3 | 1266 | 1248.9 | 1231.9 | 1215
x1 = 0.1611 | 844.531 | 840.793 | 837.028 | 833.231 | 829.399 | 1296.3 | 1279 | 1261.8 | 1244.8 | 1227.9
x1 = 0.2022 | 851.656 | 847.949 | 844.213 | 840.451 | 836.653 | 1304.8 | 1287.5 | 1270.3 | 1253.2 | 1236.3
x1 = 0.2509 | 859.278 | 855.605 | 851.908 | 848.183 | 844.427 | 1314 | 1296.7 | 1279.5 | 1262.5 | 1245.6
x1 = 0.3027 | 866.842 | 863.204 | 859.543 | 855.853 | 852.119 | 1323.6 | 1306.3 | 1289.2 | 1272.1 | 1255.3
x1 = 0.3528 | 873.375 | 869.771 | 866.147 | 862.502 | 858.829 | 1332.3 | 1315 | 1297.9 | 1280.9 | 1264.1
x1 = 0.4053 | 879.699 | 876.13 | 872.54 | 868.931 | 865.297 | 1340.8 | 1323.5 | 1306.4 | 1289.5 | 1272.7
x1 = 0.449 | 884.611 | 881.064 | 877.503 | 873.925 | 870.321 | 1347.7 | 1330.5 | 1313.3 | 1296.4 | 1279.7
x1 = 0.4988 | 889.855 | 886.337 | 882.803 | 879.25 | 875.67 | 1355.4 | 1338.1 | 1321 | 1304.1 | 1287.4
x1 = 0.5505 | 894.968 | 891.475 | 887.969 | 884.447 | 880.9 | 1363.2 | 1345.9 | 1328.8 | 1311.9 | 1295.2
x1 = 0.6005 | 899.486 | 896.02 | 892.541 | 889.046 | 885.533 | 1370.4 | 1353 | 1335.9 | 1319 | 1302.3
x1 = 0.6491 | 903.634 | 900.198 | 896.744 | 893.273 | 889.785 | 1377.4 | 1359.9 | 1342.7 | 1325.8 | 1309.1
x1 = 0.6982 | 907.626 | 904.22 | 900.798 | 897.354 | 893.894 | 1384.5 | 1366.9 | 1349.6 | 1332.6 | 1316
x1 = 0.7456 | 911.277 | 907.896 | 904.501 | 901.087 | 897.65 | 1391.5 | 1373.7 | 1356.2 | 1339.1 | 1322.3
x1 = 0.7944 | 914.718 | 911.354 | 907.982 | 904.593 | 901.177 | 1398.7 | 1380.5 | 1362.8 | 1345.5 | 1328.7
x1 = 0.8462 | 918.325 | 914.961 | 911.608 | 908.243 | 904.86 | 1406.7 | 1388 | 1370 | 1352.5 | 1335.5
x1 = 0.8928 | 921.358 | 917.984 | 914.632 | 911.284 | 907.92 | 1414.2 | 1394.9 | 1376.5 | 1358.7 | 1341.5
x1 = 0.9463 | 924.512 | 921.173 | 917.809 | 914.461 | 911.112 | 1422.7 | 1402.7 | 1383.7 | 1365.5 | 1348
x1 = 1 | 928.794 | 925.509 | 922.217 | 918.88 | 915.567 | 1431.5 | 1410.3 | 1390.4 | 1371.5 | 1353.6
